Some results are limits rather than exact numbers.

This assay deals with Pseudomonas aeruginosa LpxC enzyme (Pseudomonas aeruginosa (strain ATCC 15692 / DSM 22644 / CIP 104116 / JCM 14847 / LMG 12228 / 1C / PRS 101 / PAO1), UniProt P47205). Kind of assay: biochemical. It counts as biochemical. The note with it: inhibitory activity on Pseudomonas aeruginosa LpxC enzyme, class symbols A/B/C; read-out: Enzyme inhibitory activity.
In the case of `CNC(=O)C(C(=O)NO)N(C)C(=O)c1ccc(-c2ccc(CCOC)cc2)cc1` (stereo not drawn) [Compound 246, N-hydroxy-2-[{[4′-(2-methoxyethyl)biphenyl-4-yl]carbonyl}(methyl)amino]-N′-methylpropanediamide], the IC50 was less than 10 nM.
As for `CNC(=O)C(C(=O)NO)N(C)C(=O)c1ccc(-c2ccc(N3CCOC3=O)cc2)cc1` (stereo not drawn) [Compound 247, N-hydroxy-N′-methyl-2-(methyl {[4′-(2-oxo-1,3-oxazolidin-3-yl)biphenyl-4-yl]carbonyl}amino)propanediamide], the IC50 was 10 to 100 nM.
The value for `CNC(=O)C(C(=O)NO)N(C)C(=O)c1ccc(-c2ccc(C(=O)NC(C)(C)C)cc2)cc1` (stereo not drawn) [Compound 248, N′-tert-butyl-N-[1-(hydroxyamino)-3-(methylamino)-1,3-dioxopropan-2-yl]-N-methylbiphenyl-4,4′-dicarboxamide] was 10 to 100 nM.
On to `CNC(=O)C(C(=O)NO)N(C)C(=O)c1ccc(N2CC(c3ccccc3)C2)cc1` (stereo not drawn) [Compound 249, N-hydroxy-N′-methyl-2-{methyl[4-(3-phenylazetidin-1-yl)benzoyl]amino}propanediamide], for which the IC50 fell in the range of 10 to 100 nM.
As to `CNC(=O)C(C(=O)NO)N(C)C(=O)c1ccc(N2Cc3ccccc3C2)cc1` (stereo not drawn) [Compound 250, 2-{[4-(1,3-dihydro-2H-isoindol-2-yl)benzoyl](methyl)amino}-N-hydroxy-N′-methylpropanediamide], the IC50 lay in the range of 10 to 100 nM.
The value for `CCC(F)(F)c1ccc(-c2ccc(C(=O)N(C)C(C(=O)NC)C(=O)NO)cc2)cc1` (stereo not drawn) [Compound 251, 2-[{[4′-(1,1-difluoropropyl)biphenyl-4-yl]carbonyl}(methyl)amino]-N-hydroxy-N′-methylpropanediamide] was less than 10 nM; that for `CNC(=O)C(C(=O)NO)N(C)C(=O)c1ccc(-c2ccc(C(=O)N(C)C)cc2)cc1` (stereo not drawn) [Compound 252, N-[1-(hydroxyamino)-3-(methylamino)-1,3-dioxopropan-2-yl]-N,N′,N′-trimethylbiphenyl-4,4′-dicarboxamide] was 10 to 100 nM.
Then `CNC(=O)C(C(=O)NO)N(C)C(=O)c1ccc(-c2ccc(C(C)(F)F)cc2)cc1` (stereo not drawn) [Compound 253, 2-[{[4′-(1,1-difluoroethyl)biphenyl-4-yl]carbonyl}(methyl)amino]-N-hydroxy-N′-methylpropanediamide], with less than 10 nM.
Then `CNC(=O)C(C(=O)NO)N(C)C(=O)c1ccc(-c2ccc(C3(C)OCCO3)cc2)cc1` (stereo not drawn) [Compound 254, N-hydroxy-N′-methyl-2-(methyl {[4′-(2-methyl-1,3-dioxolan-2-yl)biphenyl-4-yl]carbonyl}amino)propanediamide], with 10 to 100 nM.
For `CNC(=O)C(C(=O)NO)N(C)C(=O)c1ccc(-c2ccc(OCCF)cc2)cc1` (stereo not drawn) [Compound 255, 2-[{[4′-(2-fluoroethoxy)biphenyl-4-yl]carbonyl}(methyl)amino]-N-hydroxy-N′-methylpropanediamide], the IC50 is less than 10 nM.
Turning to `CNC(=O)C(C(=O)NO)N(C)C(=O)c1ccc(-c2ccc(N3CCCC3)cc2)cc1` (stereo not drawn) [Compound 256, N-hydroxy-N′-methyl-2-(methyl {[4′-(pyrrolidin-1-yl)biphenyl-4-yl]carbonyl}amino)propanediamide], the IC50 was less than 10 nM.
With `CCCNC(=O)c1ccc(-c2ccc(C(=O)N(C)C(C(=O)NC)C(=O)NO)cc2)cc1` (stereo not drawn) [Compound 257, N-[1-(hydroxyamino)-3-(methylamino)-1,3-dioxopropan-2-yl]-N-methyl-N′-propylbiphenyl-4,4′-dicarboxamide], the IC50 was in the range of 10 to 100 nM.
Consider `CNC(=O)C(C(=O)NO)N(C)C(=O)c1ccc(-c2ccc3c(c2)OC(F)(F)O3)cc1` (stereo not drawn) [Compound 258, 2-{[4-(2,2-difluoro-1,3-benzodioxol-5-yl)benzoyl](methyl)amino}-N-hydroxy-N′-methylpropanediamide], for which the IC50 is less than 10 nM.
The value for `CNC(=O)C(C(=O)NO)N(C)C(=O)c1ccc(-c2ccc(CN(C)OC)cc2)cc1` (stereo not drawn) [Compound 259, N-hydroxy-2-{[(4′-{[methoxy(methyl)amino]methyl}biphenyl-4-yl)carbonyl](methyl)amino}-N′-methylpropanediamide] was 10 to 100 nM; that for `CNC(=O)C(C(=O)NO)N(C)C(=O)c1ccc(-c2ccc(/C=N/OC)cc2)cc1` (stereo not drawn) [Compound 260, N-hydroxy-2-[({4′-[(E)-(methoxyimino)methyl]biphenyl-4-yl}carbonyl)(methyl)amino]-N′-methylpropanediamide] was less than 10 nM.
Then `CNC(=O)C(C(=O)NO)N(C)C(=O)c1ccc(-c2ccc(C(C)O)cc2)cc1` (stereo not drawn) [Compound 261, N-hydroxy-2-[{[4′-(1-hydroxyethyl)biphenyl-4-yl]carbonyl}(methyl)amino]-N′-methylpropanediamide], with 10 to 100 nM; and `CNC(=O)C(C(=O)NO)N(C)C(=O)c1ccc(-c2ccc(C(C)(C)O)cc2)cc1` (stereo not drawn) [Compound 262, N-hydroxy-2-[{[4′-(2-hydroxypropan-2-yl)biphenyl-4-yl]carbonyl}(methyl)amino]-N′-methylpropanediamide], with 10 to 100 nM; and `CNC(=O)C(C(=O)NO)N(C)C(=O)c1ccc(-c2ccc(OCCCN3CC=CCC3)cc2)cc1` (stereo not drawn) [Compound 263, 2-[({4′-[3-(3,6-dihydropyridin-1(2H)-yl)propoxy]biphenyl-4-yl}carbonyl)(methyl)amino]-N-hydroxy-N′-methylpropanediamide], with 10 to 100 nM.
On to `CNC(=O)C(C(=O)NO)N(C)C(=O)c1ccc(-c2ccc(OCCCN3CCC(F)(F)CC3)cc2)cc1` (stereo not drawn) [Compound 264, 2-[({4′-[3-(4,4-difluoropiperidin-1-yl)propoxy]biphenyl-4-yl}carbonyl)(methyl)amino]-N-hydroxy-N′-methylpropanediamide], for which the IC50 is less than 10 nM.
For the compound `CNC(=O)C(C(=O)NO)N(C)C(=O)c1ccc(-c2ccc(CC(=O)N(C)C)cc2)cc1` (stereo not drawn) [Compound 265, 2-[({4′-[2-(dimethylamino)-2-oxoethyl]biphenyl-4-yl}carbonyl)(methyl)amino]-N-hydroxy-N′-methylpropanediamide], the IC50 fell in the range of 10 to 100 nM.
Then `CNC(=O)C(C(=O)NO)N(C)C(=O)c1ccc(-c2ccc(CCC(=O)N(C)C)cc2)cc1` (stereo not drawn) [Compound 266, 2-[({4′-[3-(dimethylamino)-3-oxopropyl]biphenyl-4-yl}carbonyl)(methyl)amino]-N-hydroxy-N′-methylpropanediamide], with 10 to 100 nM; and `CNC(=O)C(C(=O)NO)N(C)C(=O)c1ccc(-c2ccc(N3CCN(C)CC3)cc2)cc1` (stereo not drawn) [Compound 267, N-hydroxy-N′-methyl-2-(methyl {[4′-(4-methylpiperazin-1-yl)biphenyl-4-yl]carbonyl}amino)propanediamide], with 10 to 100 nM; and `CNC(=O)C(C(=O)NO)N(C)C(=O)c1ccc(-c2ccc(NC3CCC3)cc2)cc1` (stereo not drawn) [Compound 268, 2-[{[4′-(cyclobutylamino)biphenyl-4-yl]carbonyl}(methyl)amino]-N-hydroxy-N′-methylpropanediamide], with less than 10 nM.
The value for `CNC(=O)C(C(=O)NO)N(C)C(=O)c1ccc(-c2ccc3c(c2)OC(C)(C)O3)cc1` (stereo not drawn) [Compound 269, 2-{[4-(2,2-dimethyl-1,3-benzodioxol-5-yl)benzoyl](methyl)amino}-N-hydroxy-N′-methylpropanediamide] was less than 10 nM; that for `CNC(=O)C(C(=O)NO)N(C)C(=O)c1ccc(-c2ccc(/N=C/NO)cc2)cc1` (stereo not drawn) [Compound 272, N-hydroxy-2-{[(4′-{[(E)-(hydroxyamino)methylidene]amino}biphenyl-4-yl)carbonyl](methyl)amino}-N′-methylpropanediamide] was less than 10 nM; that for `CNC(=O)C(C(=O)NO)N(C)C(=O)C1CCC(c2ccc(Cl)cc2)CC1` (stereo not drawn) [Compound 273, 2-[{[4-(4-chlorophenyl)cyclohexyl]carbonyl}(methyl)amino]-N-hydroxy-N′-methylpropanediamide] was more than 100 nM.
Then `CNC(=O)C(C(=O)NO)N(C)C(=O)c1ccc(-c2ccc(OCCCN(C)C)cc2)cc1` (stereo not drawn) [Compound 274, 2-[({4′-[3-(dimethylamino)propoxy]biphenyl-4-yl}carbonyl)(methyl)amino]-N-hydroxy-N′-methylpropanediamide], with 10 to 100 nM; and `CNC(=O)C(C(=O)NO)N(C)C(=O)c1ccc(-c2ccc(/C=N/N(C)C)cc2)cc1` (stereo not drawn) [Compound 275, 2-[({4′-[(E)-(dimethylhydrazinylidene)methyl]biphenyl-4-yl}carbonyl)(methyl)amino]-N-hydroxy-N′-methylpropanediamide], with less than 10 nM; and `CNC(=O)C(C(=O)NO)N(C)C(=O)c1ccc(-c2ccc(OCCCN3CC(OC)C3)cc2)cc1` (stereo not drawn) [Compound 276, N-hydroxy-2-[({4′-[3-(3-methoxyazetidin-1-yl)propoxy]biphenyl-4-yl}carbonyl)(methyl)amino]-N′-methylpropanediamide], with less than 10 nM.
As to `CNC(=O)C(C(=O)NO)N(C)C(=O)c1ccc(-c2ccc(OCCCN3CCCOCC3)cc2)cc1` (stereo not drawn) [Compound 277, N-hydroxy-N′-methyl-2-[methyl({4′-[3-(1,4-oxazepan-4-yl)propoxy]biphenyl-4-yl}carbonyl)amino]propanediamide], the IC50 is less than 10 nM.
The value for `CNC(=O)C(C(=O)NO)N(C)C(=O)c1ccc(-c2cccc(NC)c2)cc1` (stereo not drawn) [Compound 278, N-hydroxy-N′-methyl-2-(methyl {[3′-(methylamino)biphenyl-4-yl]carbonyl}amino)propanediamide] was 10 to 100 nM; that for `CNC(=O)C(C(=O)NO)N(C)C(=O)c1ccc(-c2cccc(OC)c2)cc1` (stereo not drawn) [Compound 279, N-hydroxy-2-{[(3′-methoxybiphenyl-4-yl)carbonyl](methyl)amino}-N′-methylpropanediamide] was 10 to 100 nM.
The value for `CNC(=O)C(C(=O)NO)N(C)C(=O)c1ccc(-c2ccc(OCC(C)(C)O)cc2)cc1` (stereo not drawn) [Compound 280, N-hydroxy-2-[{[4′-(2-hydroxy-2-methylpropoxy)biphenyl-4-yl]carbonyl}(methyl)amino]-N′-methylpropanediamide] was less than 10 nM.

These data come from patent US9073821B2, “Hydroxamic acid derivative” (priority 2010, dated 2015).
